In patent publication US20130041005A1, “PHARMACEUTICAL COMPOSITIONS COMPRISING NEUROPILIN INHIBITORS, AND THEIR USE FOR THE PREVENTION AND/OR TREATMENT OF ANGIOGENIC DISORDERS AND CANCERS” (TRAGEX PHARMA, priority 2011, published 2013):

Key:
HUVEC cells = assay: WST-1 proliferation assay, HUVEC; format: cell-based; conditions: FIG. 1 cell survival
Procedure: (§1) Cells were grown as subconfluent monolayer and cultured in 75 cm^2 flasks at 37° C., 5% CO2 in a humidified atmosphere, and medium was changed every two days. Only cells from passages 2-6 were used for the experiments.
(§2) All cells were detached with 3 ml of trypsin/EDTA (chelator of calcium and magnesium ions) (Lonza), incubated for 5 min at 37° C., and examined using a microscope to ensure that the cells were detached and floating. […] The supernatant was removed and the cell pellet resuspended in […] of culture medium. 50 μl of this solution were transferred in 20 μl of isotonic solution and the cells were counted by count cellular (Beckman Coulter).
(§3) The cell proliferation WST-1 assay is a colorimetric assay for the quantification of cell proliferation and viability, based on the enzymatic cleavage of the tetrazolium salt WST-1 added to the culture medium, to a water soluble colored formazan dye, detected by absorbance at 450 nm, by mitochondrial succinate-tetrazolium reductase in viable cells. An augmentation in enzyme activity will then lead to an increase in the amount of formazan dye formed, which directly correlates to the number of metabolically active cells in the culture.
(§4) After an incubation period of 72 h, at day 4, were prepared the […] medium with reagent WST-1 […] ([…]). The medium was removed from the 96 microplate and 200 μl of solution WST-1/medium were added for each well. The cells were incubated at 37° C. in a humidified atmosphere of 5% CO2 for 1 h 30 and the absorbance at 450-655 nm was measured by Microplate Manager 5.2 (Bio-Rad).

MDA-MB-231 = assay: WST-1 proliferation assay, MDA-MB-231; format: cell-based, Human; conditions: MDAMB-231 cell survival, FIGS. 1A-C
Procedure: as §1, §2, §3, §4

MDAMB-231 cells = assay: Adhesion test (crystal violet), MDA-MB-231; format: cell-based, Human; conditions: MDAMB-231, FIGS. 1A-C
Procedure: The crystal violet (hexamethyl pararosaniline chloride) is used as biologic colorant. It enters in the living cells, allowing the visualisation of the dark purple adherent living cells on the bottom of the plate.
After an incubation period of 72 h, the adherent cells were fixed with […] paraformaldehyde
3% for 15 min at room temperature. The medium and non-adherent cells were removed, and the cells were washed extensively with […] PBS (+Ca^2+ and +Mg^2+) (Lonza) and then stained with 50 μl of crystal violet 0.04% for 30 min at room temperature. The cells were washed gently 3 times with 100 μl PBS and were permeabilised with 100 μl triton 2% for 15 min. The microplate was stirred to obtain a homogenous solution and absorbance was quantified at 580 nm by Microplate Manager 5.2.
The percentage of inhibition is calculated as follow: % inhibition=100−[(DOsample/DOcontrol)*100].

NRP-1 = target: T1, NRP-1 (Homo sapiens, UniProt O14786); assay: ELISA inhibition of VEGF binding to NRP-1; conditions: compounds at 10 μM
T1 construct: purchased R&D Systems, UK 3870-N1-025
T1 sequence (O14786 22-644 isoform O14786-2 limits assumed): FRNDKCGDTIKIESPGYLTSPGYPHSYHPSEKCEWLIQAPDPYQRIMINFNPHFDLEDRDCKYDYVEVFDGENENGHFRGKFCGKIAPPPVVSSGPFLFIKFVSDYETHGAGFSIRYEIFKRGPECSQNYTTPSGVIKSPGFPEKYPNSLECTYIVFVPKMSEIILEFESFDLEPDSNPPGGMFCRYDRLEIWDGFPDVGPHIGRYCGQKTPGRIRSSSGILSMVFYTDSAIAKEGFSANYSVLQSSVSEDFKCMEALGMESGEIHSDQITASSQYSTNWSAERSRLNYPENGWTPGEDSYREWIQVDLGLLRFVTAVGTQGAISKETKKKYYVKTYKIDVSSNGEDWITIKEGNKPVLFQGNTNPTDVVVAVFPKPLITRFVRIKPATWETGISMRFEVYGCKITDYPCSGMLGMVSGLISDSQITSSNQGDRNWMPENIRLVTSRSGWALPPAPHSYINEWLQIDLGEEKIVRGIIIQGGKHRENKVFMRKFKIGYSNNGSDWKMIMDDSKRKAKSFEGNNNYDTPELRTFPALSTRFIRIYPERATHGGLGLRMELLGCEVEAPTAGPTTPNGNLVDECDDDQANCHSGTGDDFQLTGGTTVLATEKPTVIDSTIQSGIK
Procedure: Elisa test was performed covering a 96-well microplate (BD Biosciences, France, cat no 353046) surface with 100 μl of 1×PBS, pH 7.4 with Ca^2+ and Mg^2+, (Lonza, France, cat no 17-513F/12) solution containing 0.2 μg/ml of VEGF-R1 (R&D Systems, UK, cat no 321-FL-050/CF) or 2 μg/ml of NRP-1 (R&D Systems, UK, cat no 3870-N1-025) or NRP-2 (R&D Systems, UK, cat no […]). The plate was sealed and incubated overnight at 4° C. After 3 washes with 200 μl of 1×PBS 0.5% (v/v) Tween 20 (Sigma, France, cat no 34078) (Buffer A), the plate was blocked by adding 200 μl of 1×PBS with 0.5% (w/v) BSA (Eurobio, France, cat no GAUBSA01-65) and agitated at 37° C. for 2 h. After washing five times with Buffer A, 50 μl/well of the compounds of the invention at 10 μM were added for the specific signal and 50 μl/well for the non-specific and max binding signal and incubated at 37° C. for 1 hour, shacking. 50 μl of btVEGF (R&D Systems, UK, cat no NFVEO) at […] for NRP-1/4 μg/ml Heparin (Sigma, USA, cat no H3393-10KU), 300 μg/ml for NRP-2 and 100 μg/ml for VEGF-R1 solution was added to each well; the plate was sealed and incubated at 37° C. for 2 h, shacking. The last incubation was carried out, after five washes with Buffer A, adding 100 μl/well Streptavidin-Horseradish Peroxidase (Amersham, Switzerland, cat no RPN4401) diluted 1:8000 with buffer A. After 1 h shacking at 37° C. under obscurity, the plate was washed 5 times with buffer A and 100 μl of SuperSignal west picochemiluminescent substrate (Interchim, USA cat no 34078) were added. Luminescence was quantified with an EnVision™ 2101 Multilabel reader (Perkin Elmer, USA) and the data analyzed by Wallac Envision manager software. Signal is given as relative light units (RLU). Non-specific binding is defined as the signal measured in the absence of receptor coated on the microplate. The specific binding was calculated as the difference between total binding and non-specific binding. The percentage of inhibition was calculated as following: […]

Compound: O=C(NC(=S)Nc1cccc(-c2nc3ccccc3[nH]2)c1)c1ccc2c(c1)OCO2 [Compound 3, N-[3-(1H-benzimidazol-2-yl)phenyl]-N′-(1,3-benzodioxol-5-ylcarbonyl)thiourea]
- cytotoxicity for endothelial cell lines (HUVEC cells) in culture (HUVEC cells): cytotoxic
- cytotoxicity for cancer cells in vitro (MDA-MB-231): cytotoxic
- inhibition of adhesion of cancer cells in culture (MDAMB-231 cells): inhibited the adhesion
- inhibition at 10 µM (NRP-1): 46 ± 3%
